# Test results as given in US11976098B2, “Cooked millet prolamin peptide for inhibiting alpha-amylase and alpha-glucosidase” (China Agricultural University, priority 2022, dated 2024).
# System: α-glucosidase
# Assay: In vitro α-glucosidase inhibitory activity (PNPG, 405 nm)
# Assay type: biochemical
# Conditions: sample 0.5%, 37° C., pH 6.8
# Description: The method for determining α-glucosidase activity is as follows: First, the solution of substrate 4-Nitrophenyl […] (PNPG) with a concentration of 1.505 mg/mL (5 mmol/L of PNPG dissolved in 0.1 mol/L phosphate buffer with a pH of 6.8) was prepared, a Na2CO3 solution with a concentration of 0.2 mol/L was prepared, and α-glucosidase solution (0.8 U/ml of α-glucosidase dissolved in 0.1 mol/L phosphate buffer with a pH of 6.8) was prepared. After the solutions were prepared, the following two groups were set for determination: [table] After preparing according to the above table, the resulting solution was shaken in a water bath at 37° C. for 10 min, followed by adding 100 μL of enzyme solution and continuing to shake in the water bath at 37° C. for 10 min. Finally, 50 μL of Na2CO3 solution was added, and the absorbance was measured at 405 nm. The formula for calculating the α-glucosidase inhibition rate is as follows: [formula]
row,Substance,α-glucosidase inhibition rate
1,"QQLRPF (The sequence is synthetized) [SEQ ID NO: 1, small peptide screened from cooked millet prolamin]",32.67%
2,"FALQGAAFLGSA (The sequence is synthetized) [SEQ ID NO: 3, small peptide screened from cooked millet prolamin]",17.67%
3,"AGAGPQGRP (The sequence is synthetized) [SEQ ID NO: 2, small peptide screened from cooked millet prolamin]",31.57%
4,"QQQQLLR (The sequence is synthetized) [SEQ ID NO: 4, small peptide screened from cooked millet prolamin]",15.94%
5,"KAHAALGAK (The sequence is synthetized) [SEQ ID NO: 6, small peptide screened from cooked millet prolamin]",13.77%
6,"KTGSGAEGMHGGK (The sequence is synthetized) [SEQ ID NO: 5, small peptide screened from cooked millet prolamin]",15.64%
